In this assay the test system is NHLF cells and diseased IPF cells (primary human lung fibroblasts) in fibrin scaffold. In words: Microscale cell-mediated fibrinolysis assay (ATPS-printed fibroblast-laden fibrin scaffolds, brightfield pixel intensity). It is filed as cell-based. Conditions: NHLF cells. As for the experimental part: A stock solution of DEX (20% w/w dextran T500; Sigma) was prepared in phosphate buffered saline (PBS) on a rocker overnight. A stock solution of PEG (6% w/w, 35 k MW; Sigma) was prepared in fully supplemented culture media with 10% deionized water to balance osmolality. Both stock solutions were passed through a 0.22 um sterilizing syringe filter before storage. PEG working solutions were stored for up to 2 weeks at 4° C. Thrombin (Human Alpha Thrombin; Enzyme Research Labs) was also added to the PEG solution at a concentration of 0.1 U/mL immediately preceding experiments. Fibrinogen-DEX solutions were prepared by diluting fibrinogen stock solution (human fibrinogen 3; Enzyme Research Labs) to a final concentration of 4 mg/mL in a sterile solution of 4% 10×DMEM, 15% DEX stock solution (to a final concentration of 3% dextran), and 50% cell suspension in growth media. For all experiments excluding cell concentration evaluation, the cell suspension was diluted for 1000 cells per microliter in the final fibrinogen-DEX solution.
Normal human lung fibroblasts (NHLF lot #0000580583; […] Cells were passaged at 80-90% confluence and were sub-cultured in 1:3 ratios by trypsinization. When at the desired confluence, cells were washed with PBS and 0.05% trypsin solution was added to the flask. Cells were incubated for 2 min, diluted with fibroblast growth media, and then harvested and centrifuged (200× g, 5 min) in a conical tube. The supernatant was aspirated and the cell pellet was re-suspended in serum-free culture media. When used in fibrin degradation experiments, cells were re-suspended at 2× the final desired concentration (1000 cells/ul unless otherwise indicated). All experiments were conducted with cells at or below passage 12. In all experiments, media was changed every 48 hours and any media additives (plasminogen, TGF-β1, drugs, etc.) were included.
Working solutions of PEG with 0.1 U/mL of thrombin were warmed to 37° C. and pipetted into a 96-well plate. For production of droplets, fibrinogen-DEX solutions with cell suspension were maintained at 37° C. and pipetted directly into the PEG-thrombin media using either a manual pipette or a semi-automated 96-channel pipette (Viaflo-96; Integra). All assays utilized a volume of 1 μl unless otherwise noted. Following dispensing of the DEX phase, the plates were placed in an incubator at 37° C. for 30 min to allow the thrombin to enzymatically crosslink the fibrinogen into a fibrin matrix (FIG. 1A). The PEG-enriched media was then washed four times by removing, then replacing half of the media with PEG-free media. When applicable, the final media addition was supplemented with stimuli as detailed in Example 5 below. For the duration of each experiment, assay plates were imaged every 2 hours at 4× with an automated cell culture monitoring system (Incucyte S3; Essen Biosystems). After one day of culture, plasminogen (50 μg/mL) (Human Glu-Plasminogen; Enzyme Research Labs) was added as a 10× concentrated solution to each well in order to initiate assay degradation (FIG. 1B), unless otherwise noted for specific conditions. Fresh plasminogen was included with each subsequent media addition. Positive controls with active plasmin (1 U/ml) (Human Plasmin; Enzyme Research Labs) and negative controls without plasminogen were included in each experiment. As cells activated plasminogen, the fibrin scaffold progressively degraded as illustrated in FIG. 1C.
After each experiment, brightfield images for every time point were downloaded in jpeg format from the automated cell culture monitoring system. Python's OpenCV library was implemented for the masking approach illustrated in FIG. 2A. First, a threshold was set at 50% of the maximum intensity (128 for 8-bit integer pixel values) in order to isolate the darker pixels of semi-opaque fibrin hydrogel from the background of the image. A closing morphological filter with a 25×25 kernel was then applied to each mask in order to remove noise. […]

The values below come from US20220196635A1, “Fibrosis Assay” (Georgia Tech Research Corporation, priority 2020, published 2022).

As to “TGF-β1: Human Recombinant TGF-β1 (Peprotech), pro-fibrotic, anti-fibrinolytic stimulus”, the “maximum slope of fibrin degradation” value (higher concentrations of TGF-β1) was “no significant changes in slope”. For the same substance, for the setting “various concentrations of TGF-β1”, the “50% degradation time / delay before fibrinolysis” value is listed as “longer time delays before fibrinolysis”.
